Like-named read-outs stand apart in the source and are kept apart here.
Columns and labels:
Aedes aegypti L1 larvae = experiment: Activity against larvae of Aedes aegypti (L1 larvae, 384-well, image-based mortality); conditions: read-out: EC50 (percentage of mortality, A. aegypti L1 larvae)
Procedure: Example 3: Screening Method to Test Activity of Compounds of Formula (I) Against Larvae of Aedes aegypti
Eight A. aegypti L1 larvae in a total volume of 64 μL water were added to 384-well microplates containing compounds formulated in 100% DMSO. The plates were incubated for 48 h at 27° C. Individual well images were acquired and analyzed using a pipeline to quantitatively assess the amount of larvae biomass accumulating at the bottom of the well. The efficacy of a compound at a given dose is expressed as “percentage of mortality” and determined by comparison to average biomass descriptors of positive and negative control wells containing 1.0 μM Fipronil or DMSO only, respectively. Dose response assay were conducted to determine an EC50 value.

[1] = test system: Spodoptera litura 2nd-instar larvae; experiment: Insecticidal test on Spodoptera litura (cabbage leaf dip); conditions: foliar, 192 h, 8 days after inoculation, read-out: activity level (corrected mortality rate), Spodoptera litura
Procedure: Example 11: Insecticidal Test on Spodoptera litura
The compounds of formula (I) of the present invention or salts thereof were separately dispersed in water and diluted to 500 ppm. Cabbage leaves were dipped in the dispersion for about 30 seconds. After air dried, the leaves were placed in a plastic Petri dish with a diameter of 9 cm and inoculated with ten 2nd-instar larvae of Spodoptera litura, after which the dish was closed and then allowed to stand in a room at 25° C. 8 days after the inoculation, the numbers of the dead and alive insects were counted. The corrected mortality rate was calculated according to the following formula and the insecticidal activity was evaluated according to the following criteria. Corrected mortality rate (%)=100×(Survival rate in an untreated plot−Survival rate in a treated plot)/Survival rate in an untreated plot • A: the corrected mortality rate is 100% • B: the corrected mortality rate is 90 to 99% • C: the corrected mortality rate is 80 to 89% • D: the corrected mortality rate is 50 to 79%

Plutella xylostella = experiment: Insecticidal test on Plutella xylostella (Chinese cabbage seedling dip); conditions: 144 h, 500 ppm, seedling dip, 6 days after dip treatment, read-out: activity level (corrected mortality rate), Plutella xylostella
Procedure, shortened: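 Compounds dispersed in water at 500 ppm; Chinese cabbage seedlings bearing eggs laid by released adults over 2 days were dipped ~30 s, air-dried and kept at 25° C. Dead and live insects counted 6 days later; corrected mortality versus untreated plot scored A (100%), B (90–99%), C (80–89%), D (50–79%).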

[2] = test system: Laodelphax striatellus 3rd-instar nymphs; experiment: Insecticidal test on Laodelphax striatellus (rice seedling dip); conditions: 192 h, 500 ppm, seedling dip, 8 days after inoculation, read-out: activity level (corrected mortality rate), Laodelphax striatellus
Procedure: Example 13: Insecticidal Test on Laodelphax striatellus
The compounds of formula (I) of the present invention or salts thereof were separately dispersed in water and diluted to 500 ppm. Rice plant seedlings were dipped in the dispersion for about 30 seconds. After air dried, the seedlings were put into a separate glass test tube and inoculated with ten 3rd-instar nymphs of Laodelphax striatellus and then the glass test tube was kept in a room at 25° C. 8 days after the inoculation, the numbers of the dead and alive insects were counted. The corrected mortality rate was calculated according to the following formula and the insecticidal activity was evaluated according to the following criteria. Corrected mortality rate (%)=100×(Survival rate in an untreated plot−Survival rate in a treated plot)/Survival rate in an untreated plot • A: the corrected mortality rate is 100% • B: the corrected mortality rate is 90 to 99% • C: the corrected mortality rate is 80 to 89% • D: the corrected mortality rate is 50 to 79%

Myzus persicae = experiment: Insecticidal test on Myzus persicae (foliar application on potted Chinese cabbage); conditions: 144 h, read-out: control efficacy level (control rate), Myzus persicae
Excerpt: Example 14: Insecticidal Test on Myzus persicae
The compounds of formula (I) of the present invention or salts thereof were separately dispersed in water and diluted to 500 ppm. Chinese cabbage plants were planted in plastic pots (diameter: 8 cm, height: 8 cm). Aphids (Myzus persicae) were propagated on the plants and then the number of surviving aphids was counted. The dispersion was applied to the foliage of the potted plants. After the plants were air dried, these were kept in a greenhouse. 6 days after the application, the number of the alive insects was counted on the plants. The control rate was calculated according to the following formula and the control efficacy was evaluated according to the following criteria. Control rate (%)=100−{(T×Ca)/(Ta×C)}×100 • Ta: the number of alive insects before the foliar application in a treated plot • T: the number of alive insects after the foliar application in a treated plot • Ca: the number of alive insects before the foliar application in an untreated plot • C: the number of alive insects after the foliar application in an untreated plot • A: the control rate is 100% • B: the control rate is 90 to 99% • C: the control rate is 80 to 89% • D: the control rate is 50 to 79%

[3] = test system: adult Ctenocephalides felis fleas; experiment: Contact activity against adult Ctenocephalides felis (treated surface, motility by machine vision, 24 h); conditions: treated surface, 24h, read-out: EC80 (% motility reduction, adult C. felis, contact)
Excerpt: Example 7: Screening Method to Test Contact Activity of Compounds of Formula (I) Against Adult Ctenocephalides felis

[4] = test system: adult Ctenocephalides felis fleas; experiment: Ingestion activity (flea membrane feeding, blood feeding) against adult Ctenocephalides felis; conditions: Ctenocephalides felis
[5] = test system: adult Rhipicephalus sanguineus ticks; experiment: Contact activity against adult Rhipicephalus sanguineus (coated vial, mortality at 48 h); conditions: Rhipicephalus sanguineus
Procedure, shortened: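 Compound in acetone/0.02% Triton X-100 coated onto glass vial walls and cap filter paper; after drying, ten adult ticks added per vial. Held at 24° C, 95% relative humidity, 12 h light/dark cycle. Mortality scored visually at 48 hours; EC50 derived from a dose-response series.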

[6] = test system: nymphs of Dermacentor variabilis ticks; experiment: Oral rat-tick efficacy against nymphs of Dermacentor variabilis ticks; format: in vivo; conditions: rats, oral gavage 10 mg/kg on Day 0, tick count on Day 3
Procedure: Example 10: Comparison of Oral Rat-Tick Efficacy Data for Selected Specific Compounds of Formula (I) Against Nymphs of Dermacentor variabilis Ticks
On Day −1, rats were sedated, fitted with an Elizabethan collar, and infested with approximately 35 nymphal stage D. variabilis ticks. On Day 0, each rat was treated via oral gavage with the appropriate formulation of placebo, positive control, or test compound at the appropriate dose. On Day 3, all rats were euthanized, and ticks were removed, counted, and disposed of. In Table 2 efficacy is expressed in % mortality compared to negative controls containing compound vehicle only.

[7] = 500 ppm, foliar application, 6 days after application
[8] = bovine blood, 24h post treatment, read-out: EC80 (% motility reduction, adult C. felis, ingestion via membrane feeding)
[9] = 48 hours post-treatment, coated vial, read-out: EC50 (percentage mortality, adult R. sanguineus, contact)
[10] = contact assay, >100 μM = not active at the top concentration, read-out: R. sanguineus contact activity EC50
[11] = 24 h, flea membrane feeding (ingestion, blood feeding) assay, EC80, read-out: C. felis membrane feeding (ingestion/blood feeding) activity EC80

Compound: CCS(=O)(=O)c1cc(-c2cccc(C3CC3)n2)cnc1-c1nc2cc(C(F)(F)C(F)(F)F)nnc2n1C [Compound 3, 6-cyclopropyl-5′-(ethanesulfonyl)-6′-[7-methyl-3-(1,1,2,2,2-pentafluoroethyl)imidazo[4,5-c]pyridazin-6-yl]-2,3′-bipyridine]
- EC50 (Aedes aegypti L1 larvae; 48 h): < 0.04 µM
- mortality at 500 ppm [1]: 100%
- mortality at 500 ppm (Plutella xylostella): 100%
- mortality at 500 ppm [2]: 100%
- pest or weed control at 500 ppm (Myzus persicae; foliar): 100%

Compound: CCS(=O)(=O)c1cc(-c2ccc(C3CC3)cc2)cnc1-c1nc2cc(C(F)(F)F)cnc2n1C [Compound 41, 5-(4-cyclopropylphenyl)-3-(ethanesulfonyl)-2-[3-methyl-6-(trifluoromethyl)imidazo[4,5-b]pyridin-2-yl]pyridine]
- EC50 (Aedes aegypti L1 larvae; 48 h at 27° C., 384-well): < 0.04 µM
- mortality at 500 ppm [1]: 100%
- mortality at 500 ppm (Plutella xylostella): 100%
- mortality at 500 ppm [2]: 100%
- EC80 [3]: 1 to 10 µM
- pest or weed control at 500 ppm (Myzus persicae; [7]): 100%

Compound: CCS(=O)(=O)c1cc(-c2ccc(C3CC3)cc2)cnc1-c1nc2cc(S(=O)(=O)C(F)(F)F)ccc2n1C [Compound 42, 2-[5-(4-cyclopropylphenyl)-3-(ethanesulfonyl)pyridin-2-yl]-1-methyl-5-trifluoromethanesulfonyl-1,3-benzodiazole]
- EC50 (Aedes aegypti L1 larvae; 48 h at 27° C., 384-well): < 0.04 µM
- mortality at 500 ppm [1]: 100%
- mortality at 500 ppm (Plutella xylostella): 100%
- EC80 [3]: 1 to 10 µM
- EC80 [4, 8]: 1 to 10 µM

Compound: CCS(=O)(=O)c1cc(-c2ccc(C3CC3)cc2)cnc1-c1nc2cc([S+]([O-])C(F)(F)F)ccc2n1C (stereo not drawn) [Compound 43, 2-[5-(4-cyclopropylphenyl)-3-(ethanesulfonyl)pyridin-2-yl]-1-methyl-5-trifluoromethanesulfinyl-1,3-benzodiazole]
- EC50 (Aedes aegypti L1 larvae; 48 h at 27° C., 384-well): < 0.04 µM
- mortality at 500 ppm [1]: 100%
- mortality at 500 ppm (Plutella xylostella): 100%
- EC80 [3]: 1 to 10 µM
- EC80 [4, 8]: 1 to 10 µM
- pest or weed control at 500 ppm (Myzus persicae; [7]): 100%

Compound: CCS(=O)(=O)c1cc(-c2ccc(C3CC3)cc2)cnc1-c1nc2cc(C(F)(F)F)n(C3CC3)c(=O)c2n1C [Compound 45, 5-cyclopropyl-2-[5-(4-cyclopropylphenyl)-3-(ethanesulfonyl)pyridin-2-yl]-3-methyl-6-(trifluoromethyl)imidazo[4,5-c]pyridin-4-one]
- EC50 (Aedes aegypti L1 larvae; 48 h at 27° C., 384-well): < 0.04 µM
- mortality at 500 ppm [1]: 100%
- mortality at 500 ppm (Plutella xylostella): 100%
- mortality at 500 ppm [2]: 100%
- EC50 [5, 9]: < 10 µM
- EC50 [5, 10]: < 10 µM
- EC80 [4, 11]: 1 to 10 µM
- EC80 [4, 8]: 1 to 10 µM
- pest or weed control at 500 ppm (Myzus persicae; [7]): 100%

Compound: CCS(=O)(=O)c1cc(-c2ccc(C3CC3)cc2)cnc1-c1cc2n(CC3CC3)cc(C(F)(F)F)cc-2n1 [Compound 96, 2-[4-(cyclopropylmethyl)-6-(trifluoromethyl)pyrrolo[3,2-b]pyridin-2-yl]-5-(4-cyclopropylphenyl)-3-(ethanesulfonyl)pyridine]
- mortality at 500 ppm [1]: 100%
- mortality at 500 ppm (Plutella xylostella): 100%
- mortality at 500 ppm [2]: 100%
- EC50 [5, 9]: < 10 µM
- EC50 [5, 10]: 10 to 100 µM
- EC80 [4, 11]: 1 to 10 µM
- pest or weed control at 500 ppm (Myzus persicae; [7]): 100%

Compound: CCS(=O)(=O)c1cc(-c2ccc(C3(C#N)CC3)cc2)cnc1-c1nc2cc(C(F)(F)C(F)(F)F)ncc2n1C [Compound 115, 1-[4-[5-(ethanesulfonyl)-6-[3-methyl-6-(1,1,2,2,2-pentafluoroethyl)imidazo[4,5-c]pyridin-2-yl]pyridin-3-yl]phenyl]cyclopropane-1-carbonitrile]
- EC50 (Aedes aegypti L1 larvae; 48 h at 27° C., 384-well): < 0.04 µM
- mortality at 500 ppm [1]: 100%
- mortality at 500 ppm (Plutella xylostella): 100%
- mortality at 500 ppm [2]: 100%
- EC50 [5, 9]: 10 to 100 µM
- EC50 [5, 10]: 10 to 100 µM
- EC80 [3]: < 1 µM
- EC80 [4, 11]: < 1 µM
- EC80 [4, 8]: < 1 µM
- pest or weed control at 500 ppm (Myzus persicae; [7]): 100%

Compound: CCS(=O)(=O)c1cc(-c2cc(C3CC3)ccn2)cnc1-c1nc2cc(C(F)(F)C(F)(F)F)cnc2n1C [Compound 182, 4-cyclopropyl-5′-(ethanesulfonyl)-6′-[3-methyl-6-(1,1,2,2,2-pentafluoroethyl)-3H-imidazo[4,5-b]pyridin-2-yl]-2,3′-bipyridine]
- mortality at 500 ppm [1]: 100%
- mortality at 500 ppm (Plutella xylostella): 100%
- mortality at 500 ppm [2]: 100%
- EC50 ([5]; 48 h, read-out: EC50 (percentage mortality, adult R. sanguineus, contact)): 10 to 100 µM
- EC80 ([4]; 24 h, read-out: EC80 (% motility reduction, adult C. felis, ingestion via membrane feeding)): < 1 µM
- pest or weed control at 500 ppm (Myzus persicae; foliar): 100%

Compound: CCS(=O)(=O)c1cc(-c2ccc(C3CC3)cc2)cnc1-c1nc2cc(C(C)(F)F)cnc2n1C [Compound 194, 5-(4-cyclopropylphenyl)-2-[6-(1,1-difluoroethyl)-3-methylimidazo[4,5-b]pyridin-2-yl]-3-(ethanesulfonyl)pyridine]
- mortality at 500 ppm [1]: 100%
- mortality at 500 ppm (Plutella xylostella): 100%
- mortality at 500 ppm [2]: 100%
- EC50 [5, 9]: 10 to 100 µM
- pest or weed control at 500 ppm (Myzus persicae; [7]): 100%

Compound: CCS(=O)(=O)c1cc(-c2ccc(C3(C#N)CC3)cc2)cnc1-c1nc2cc(C(F)(F)F)cn(CC(F)F)c-2c1F [compound 67]
- Observed efficacy (% mortality compared to negative controls) [6]: >95%

Compound: CCS(=O)(=O)c1cc(-c2cccc(C3CC3)n2)cnc1-c1nc2cc(C(F)(F)C(F)(F)F)cnc2n1C [compound 112]
- EC50 (Aedes aegypti L1 larvae; 48 h at 27° C., 384-well): < 0.04 µM
- mortality at 500 ppm [1]: 100%
- mortality at 500 ppm (Plutella xylostella): 100%
- EC50 [5, 9]: 10 to 100 µM
- EC50 [5, 10]: 10 to 100 µM
- EC80 [3]: < 1 µM
- EC80 [4, 11]: 1 to 10 µM
- EC80 [4, 8]: 1 to 10 µM
- pest or weed control at 500 ppm (Myzus persicae; [7]): 100%

Compound: CCS(=O)(=O)c1cc(-c2ccc(C3(C#N)CC3)cc2)cnc1-c1ccc(OCC(F)(F)C(F)(F)F)cn1 [compound 128]
- mortality at 500 ppm [1]: 100%
- mortality at 500 ppm (Plutella xylostella): 100%
- mortality at 500 ppm [2]: 100%
- EC50 [5, 9]: < 10 µM
- EC80 [3]: 1 to 10 µM
- pest or weed control at 500 ppm (Myzus persicae; [7]): 100%
